In patent EP2439195B1, “NAPHTHALENE CARBOXAMIDE DERIVATIVES AS INHIBITORS OF PROTEIN KINASE AND HISTONE DEACETYLASE, PREPARATION METHODS AND USES THEREOF” (Shenzhen Chipscreen Biosciences, Ltd., priority 2009, dated 2010):

Columns and labels:
Class I HDAC = experiment: HDAC subtype selectivity reporter gene assay (P21 reporter, HeLa cells); format: cell-based; settings: Homo sapiens; 10µM; HeLa cells, 24 hours; read-out: Class I HDAC (P21 reporter assay) Fold Induction at 10µM
Description: Different HDAC subtypes can bind with different transcriptional factors and involve in expression regulation of various genes. Suitable regulation elements for transcriptional factors are selected to construct reporter genes, which can be used to evaluate the selective inhibition of inhibors on HDAC subtypes. Briefly, HeLa cells were seeded in 96-well plates the day before transfection to give a confluence of 50-80% when transfection. Cells were transfected with one of reporter gene plasmid containing a p21-promoter sequence or response element upstream of a luciferase gene construct using FuGene6 transfection reagent according to the manufacturer's instruction (Roche). For normalizing the transfection efficiency, a GFP expression plasmid was cotransfected. After 24 hours compounds or the vehicle control (DMSO) were added. 24 hours later the cells were harvested and lysed, and the amount of the luciferase was evaluated using luciferase assay kits (Promega) according to the manufacturer's instructions.

total HDAC enzyme = experiment: In vitro total HDAC enzyme activity (HDAC Fluorimetric Assay/Drug Discovery Kit, HeLa cell nuclear extract); format: biochemical
Description: The in vitro total HDAC enzyme activity was determined by HDAC Fluorimetric Assay/Drug Discovery Kit (BIOMOL) according to manufacture's instruction. The principle of the experiment is as follows: under the action of histone deacetylase (in the experiment, HeLa cell nuclear extract, which was rich in a variety of subtypes of HDAC, was used), an acetyl group is removed from a special substrate Fluor de Lys, thus the free amino is exposed. Upon Developer is added, the substrate will produce fluorescence. For the fluorescence, excitation wavelength is 360nm, and emission wavelength is 460nm. More fully the substrate deacetylated, more higher the fluorescence induced. In the absence of inhibitors, the fluorescence value is taken as the control; when inhibitor is existed, fluorescence value induced will be reduced, while in the case no enzyme is existed (corresponding to the completely inhibition of enzyme activity) the fluorescence value is blank. Generally, after suppression the fluorescence values will be between the control and blank. When analysis is made, blank will be used as 0, and the control will be used as 1. Smaller value means higher inhibitory activity. 1. Add Assay buffer, diluted trichostatin A and test inhibitor to appropriate wells of the microtiter plate. Following table lists the amounts used for each regent of various assay types.
2. Add diluted HeLa nucleoprotein extract to all wells except those that are marked as "blank". 3. Allow diluted Fluor de Lys™ Substrate and the samples in the microtiter plate to equilibrate to 25°C. 4. Initiate HDAC reactions by adding diluted substrate (25 µl) to each well and mixing thoroughly. 5. Allow reactions to proceed for 30 minutes and then stop them by addition of Fluor de Lys™ Developer (50 µl). Incubate plate at room temperature (25°C) for 10-15 min. 6. Read fluorescence of samples on a microtiter-plate reading fluorimeter at a excitation wavelength of 369 nm and a emitted wavelength of 451 nm.

A549 = experiment: Tumor cell proliferation (MTS), A549; format: cell-based; settings: Homo sapiens; A549, 72 hours; read-out: Gl50 µM in A549
Description: (§1) Tumor cells were trypsinized and plated into 96-well plates at 3,000 per well and incubated in complete medium with 10% FBS for 24 hours. Compounds to be tested and vehicle control were added, and the final concentration of compound is in the range of 100 nmol/L to 100 µmol/L. The compounds were incubated for 72 hours in complete medium. The MTS reagent (Promega) was added according to the instruction, incubated for 2 hours at 37°C in CO2 incubator. Then absorbance at 490nm is read using an ELISA plate reader.

A-498 = experiment: Tumor cell proliferation (MTS), A-498; format: cell-based; settings: Homo sapiens, A498; A-498, 72 hours; read-out: Gl50 µM in A-498
Description: as §1

human A549 lung cancer = experiment: Nude mice tumor transplanted from human A549 lung cancer (Example 51); format: in vivo; settings: for TGI (%): tumor growth inhibition
Description: Then the cultured A549 human lung cancer cells were implanted into the armpit of 50 mice. […] Each group had 8 mice. One group was treated with vehicle. One group was treated with Sutent, the positive control drug. […] Each group was dosed orally once a day for 24 days. Tumor volumes along with body weights were recorded twice per week. On the next day after 24 doses, the mice were killed, and tumors were weighed. The tumor growth inhibition of each group was calculated using the following formula: {[(the average tumor weight of control group)-(the average tumor weight of test group)]/(the average tumor weight of control group)}×100%.

Bel-7402 = experiment: Tumor cell proliferation (MTS), Bel-7402; format: cell-based; settings: Homo sapiens; Bel-7402, 72 hours; read-out: Gl50 µM in Bel-7402
Description: as §1

human PDGFRβ = target: T1, human PDGFRβ (Homo sapiens, UniProt P09619); experiment: PDGF dependent cell proliferation (MTS); format: cell-based; settings: PDGFRβ NIH-3T3 cells, PDGF BB (50ng/ml), 72 hours, serum-free medium; read-out: Gl50 nM (PDGF ligand-dependent cell proliferation)
T1 construct: expressed in transfected cells
Description: NIH-3T3 mouse fibroblasts cell line engineered to stably express human PDGFRβ was constructed and used to evaluate PDGF dependent cell proliferation. PDGFRβ NIH-3T3 cells were plated into 96-well plates at 5,000 per well and incubated overnight with serum-free medium after 24 hours. Compounds to be tested and PDGF BB (50ng/ml) were added and incubated for 72 hours in serum-free medium. The effects on proliferation were determined by MTS method (Promega) according to the instruction. Incubation was performed for 2 hours at 37°C in CO2 incubator, and absorbance at 490nm was measured using an ELISA plate reader.

MCF-7 = experiment: Tumor cell proliferation (MTS), MCF-7; format: cell-based; settings: Homo sapiens, MCF7; MCF-7, 72 hours; read-out: Gl50 µM in MCF-7
Description: as §1

HCT-8 = experiment: Tumor cell proliferation (MTS), HCT-8; format: cell-based; settings: Homo sapiens; HCT-8, 72 hours; read-out: Gl50 µM in HCT-8
Description: as §1

HUVEC cells = experiment: VEGF dependent cell proliferation (MTS); format: cell-based; settings: Homo sapiens, VEGF 165 (50ng/ml), 72 hours, serum-free medium, read-out: Gl50 nM (VEGF ligand-dependent cell proliferation)
Description: HUVEC cells were plated into 96-well plates at 6,000 per well and after 24 hours incubated with serum-free medium for 2 hours. Compounds to be tested and VEGF 165 (50ng/ml) were added and incubated for 72 hours in serum-free medium. The effects on cell proliferation were determined by MTS method (Promega) according to the instruction. Incubation was performed for 2 hours at 37°C in CO2 incubator, and absorbance at 490nm was determined using an ELISA plate reader.

[1] = 5 mg/kg orally once a day for 24 days
[2] = 10 mg/kg orally once a day for 24 days
[3] = 20 mg/kg orally once a day for 24 days
[4] = 40 mg/kg orally once a day for 24 days

T1 sequence (P09619 33-1106): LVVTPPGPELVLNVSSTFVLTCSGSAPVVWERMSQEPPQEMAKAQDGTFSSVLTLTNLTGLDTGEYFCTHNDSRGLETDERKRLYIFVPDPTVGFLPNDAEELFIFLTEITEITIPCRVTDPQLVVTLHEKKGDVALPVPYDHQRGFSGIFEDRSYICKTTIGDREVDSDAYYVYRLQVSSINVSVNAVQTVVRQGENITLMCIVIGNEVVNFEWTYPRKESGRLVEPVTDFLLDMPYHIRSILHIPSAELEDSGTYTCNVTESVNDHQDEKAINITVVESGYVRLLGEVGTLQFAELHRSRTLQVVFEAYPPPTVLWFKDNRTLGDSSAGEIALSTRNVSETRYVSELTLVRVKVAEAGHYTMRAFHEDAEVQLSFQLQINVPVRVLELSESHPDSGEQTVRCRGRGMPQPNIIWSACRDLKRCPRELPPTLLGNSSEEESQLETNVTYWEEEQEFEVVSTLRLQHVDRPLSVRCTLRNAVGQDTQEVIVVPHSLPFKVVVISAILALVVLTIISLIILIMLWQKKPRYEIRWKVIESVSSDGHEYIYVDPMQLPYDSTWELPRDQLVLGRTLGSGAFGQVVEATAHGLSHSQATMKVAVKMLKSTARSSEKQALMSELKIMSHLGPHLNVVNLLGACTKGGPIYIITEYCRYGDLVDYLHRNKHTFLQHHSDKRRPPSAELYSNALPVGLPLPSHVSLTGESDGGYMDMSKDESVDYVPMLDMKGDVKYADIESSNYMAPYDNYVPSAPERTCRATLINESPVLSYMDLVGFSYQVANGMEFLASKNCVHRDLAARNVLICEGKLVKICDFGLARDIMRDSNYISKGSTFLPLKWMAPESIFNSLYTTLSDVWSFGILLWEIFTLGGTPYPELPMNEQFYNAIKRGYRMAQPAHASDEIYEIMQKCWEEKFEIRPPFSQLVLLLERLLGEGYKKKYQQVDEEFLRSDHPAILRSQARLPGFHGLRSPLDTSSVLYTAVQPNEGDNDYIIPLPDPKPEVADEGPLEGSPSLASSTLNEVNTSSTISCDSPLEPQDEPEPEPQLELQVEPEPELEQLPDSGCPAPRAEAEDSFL

In the case of `COc1ccc2c(Oc3ccc4c(C(=O)Nc5ccccc5N)cccc4c3)ccnc2c1` [Compound 31, N-(2-aminophenyl)-6-(7-methoxyquinolin-4-yloxy)-1-naphthamide], the fold induction at 10 µM (Class I HDAC) is reported as 1.6, the “% inhibition of total HDAC enzyme activity at 30µM” value (total HDAC enzyme) is reported as 10.1% and the IC50 (A549) is reported as 17.3 µM. For the same compound, the IC50 (A-498) was 9.5 µM, the “Tumor weight” value (human A549 lung cancer; [1]) was 2.20 ± 0.57 g and the “Body weight (g) end” value (human A549 lung cancer; [1]) was 24.6 ± 1.3 g. The “Body weight (g) start” value (human A549 lung cancer; [1]) was 21.1 ± 0.6 g, the “Tumor weight” value (human A549 lung cancer; [2]) was 2.13 ± 0.51 g and the “Body weight (g) end” value (human A549 lung cancer; [2]) was 25.1 ± 1.3 g. For the same compound, the “Body weight (g) start” value (human A549 lung cancer; [2]) was 19.9 ± 1.3 g, the “Tumor weight” value (human A549 lung cancer; [3]) was 1.50 ± 0.41 g and the “Body weight (g) end” value (human A549 lung cancer; [3]) was 24.2 ± 0.7 g. The “Body weight (g) start” value (human A549 lung cancer; [3]) was 20.6 ± 1.1 g, the “TGI (%)” value (human A549 lung cancer; [3]) was 64.3% and the “Tumor weight” value (human A549 lung cancer; [4]) was 1.06 ± 0.54 g. For the same compound, the “Body weight (g) end” value (human A549 lung cancer; [4]) was 22.6 ± 2.4 g, the “Body weight (g) start” value (human A549 lung cancer; [4]) was 20.0 ± 0.9 g and the “TGI (%)” value (human A549 lung cancer; [4]) was 74.8%. It also gave an IC50 (Bel-7402) of 30 µM, an IC50 (human PDGFRβ) of 0.046 µM and an IC50 (MCF-7) of 10.2 µM. It also gave an IC50 (HCT-8) of 6.6 µM and an IC50 (HUVEC cells) of 0.005 µM.
With `COc1ccc2c(Oc3ccc4c(C(=O)NCc5ccc(C(=O)Nc6ccccc6N)cc5)cccc4c3)ccnc2c1` [Compound 33, N-(4-((2-aminophenyl)carbamoyl)benzyl)-6-(7-methoxyquinolin-4-yloxy)-1-naphthamide] the fold induction at 10 µM (Class I HDAC) was 2.8, the “% inhibition of total HDAC enzyme activity at 30µM” value (total HDAC enzyme) was 39.1% and the IC50 (A549) was 2.1 µM. It also gave an IC50 (A-498) of 1.9 µM, an IC50 (Bel-7402) of 2.8 µM and an IC50 (human PDGFRβ) of 0.3 µM. It also gave an IC50 (MCF-7) of 2 µM, an IC50 (HCT-8) of 1.5 µM and an IC50 (HUVEC cells) of 0.008 µM.
